# Measurements taken from patent publication US20170157251A1, “Bi-Specific Monovalent Diabodies That are Capable of Binding CD19 and CD3, and Uses Thereof” (MacroGenics, Inc., priority 2015, published 2017).
# Tests used:
# Raji/GF cells = assay: Redirected killing of target tumor cells using human T cells, Raji/GF; format: cell-based; settings: HBL-2, Raji/GF, Jeko-1; E:T 10:1
# CD20+ B cells [1] = assay: Autologous B cell depletion in human PBMCs; format: cell-based
# Excerpt: (§1) Potential differences in CD19 expression levels between human and cynomolgus monkey B cells may be another variable factor contributing to the apparent difference in potency.
# CD20+ B cells [2] = assay: Autologous B cell depletion in cynomolgus monkey PBMCs; format: cell-based
# Excerpt: as §1
# human T cells = assay: Cytokine release by human T cells in the presence of Raji/GF target cells (ELISA); format: cell-based; settings: co-incubation with Raji/GF target cells
# [3] = test system: human CD4+ and CD8+ T cells; assay: Human T cell activation (CD25, CD69) during redirected killing of Raji/GF cells; format: cell-based; settings: Raji/GF target cells
# Excerpt: (§2) The effect on T cells during DART-A-mediated redirected target cell (Raji/GF cells) lysis was characterized by evaluating expression of the T cell activation markers CD69 and CD25.
# [4] = test system: cynomolgus monkey CD4+ and CD8+ T cells; assay: Cynomolgus monkey T cell activation (CD25, CD69) during redirected killing of Raji/GF cells; format: cell-based; settings: Raji/GF target cells
# Excerpt: as §2
# [5] = test system: human T cells with JIMT-1 cells; assay: Human T cell activation in the presence of CD19-negative JIMT-1 cells; format: cell-based
# [6] = test system: human CD8+ and CD4+ T cells; assay: Intracellular granzyme B and perforin in T cells in CTL assay; format: cell-based; settings: 24 hours, Raji/GF target cells, E:T 10:1
# Excerpt: Of note, the upregulation of granzyme B (FIG. 15A) and perforin (FIG. 15B) was higher in CD8+ T cells compared with CD4+ T cells, consistent with the expected higher CTL potency of CD8+ T cells.
# [7] = test system: CFSE-labeled human T cells; assay: Proliferation of CFSE-labeled human T cells co-cultured with HBL-2 target cells; format: cell-based; settings: 200 ng/mL, E:T 10:1, 72 hours
# Experimental: The expansion of T cells during effector:target cell co-engagement by […] was also evaluated, given that proliferation concomitant with T cell activation has been previously reported. […] Proliferation of CFSE-labeled T cells was monitored by levels of CFSE dilution over time by FACS analysis (FIGS. 16A-16B).
# HBL-2 tumor cells [8] = assay: HBL-2 co-mix xenograft with activated human T cells; format: in vivo, NOD/SCID mice; settings: by Day 13
# Excerpt: (§3) In both studies, human T cells and tumor cells (HBL-2 or Raji) were combined at a ratio of 1:5 (1×10^6 and 5×10^6 cells, respectively) and injected SC into mice on Day 0.
# Raji tumor cells = assay: Raji co-mix xenograft with activated human T cells; format: in vivo, NOD/SCID mice; settings: end of the study (Day 28)
# Excerpt: as §3
# HBL-2 tumor cells [9] = assay: Established HBL-2 xenograft model with human PBMCs; format: in vivo, NSG B2m−/− mice
# Excerpt: Mice were implanted with HBL-2 tumor cells (5×10^6 cells) intradermally (ID) on Day 0 followed by intraperitoneal (IP) injection of PBMCs (5×10^7 cells) on Day 4.
# However, prior to the third (Study Day 24) and fourth (Study Day 28) doses, the tumor volumes were 1469±162 and 848±74 mm^3, respectively, representing a 36% and 63%, respectively, decrease in tumor volume with respect to the peak volume recorded on Study Day 21 (FIG. 19B). The tumors continued to decrease in size to the extent that on Day 42, the average tumor volume was 248±52 mm^3, an 89% decrease in the tumor volume (FIG. 19B).
# [10] = Human FcRn transgenic mouse pharmacokinetic study; format: in vivo; settings: human FcRn transgenic mice
# Experimental: Three human mAbs were also evaluated in same test system for comparison and had terminal half-lives ranging from 58.7 to 102.7 hours.
# [11] = test system: CLL malignant B cells (CD20+/CD5+); assay: Autologous depletion of malignant B cells in CLL primary patient PBMCs; format: cell-based, human
# Experimental: Due to the limited patient sample availability, only 2 concentrations (50 ng/mL and 200 ng/mL) were tested. The percentages of CLL malignant B cells (CD19+/CD5+ or CD20+/CD5+) and T cells (CD19−/CD5+ or CD4+ and CD8+) were measured by flow cytometry prior to treatment and following treatment for 3 and 6 days.
# Raji.luc lymphoma cells = assay: Disseminated Raji.luc model in human PBMC-reconstituted mice, early treatment; settings: 12 doses
# Raji.luc cells = assay: Disseminated Raji.luc model in human PBMC-reconstituted mice, established tumor; settings: treatment from Study Day 15, 9 doses; DART-A 0.16 μg/kg to 0.5 mg/kg, Control DART 1 0.1 mg/kg
substance,measurement,setting,value
Control DART 1: control DART capable of binding to fluorescein and CD3 [reference compound],T cell redirected killing of target cells,Raji/GF cells,did not mediate T cell redirected killing of target cells
same,CD20+ B cell depletion,CD20+ B cells [1],no B cell depletion was observed
same,CD20+ B cell depletion,CD20+ B cells [2],no B cell depletion was observed
same,cytokine production,human T cells,did not result in any detectable cytokine production
same,T cell activation markers CD25 and CD69,[3],did not mediate induction of T cell activation markers
same,T cell activation markers CD25 and CD69,[4],did not mediate induction of T cell activation markers
same,T cell activation,[5],fail to mediate human T cell activation
same,granzyme B and perforin levels in CD8+ and CD4+ T cells,[6],no upregulation of granzyme B or perforin was observed
same,cells proliferating (CFSE dilution),[7],no proliferation of CFSE-labeled T cells was observed
same,average tumor volume,HBL-2 tumor cells [8],approximately 1000 mm^3
same,average tumor volume,Raji tumor cells,2968.2±200.0 mm3
same,average tumor volume,"HBL-2 tumor cells [9]; Day 21 (2nd dose), treatment from Day 17, DART-A 0.5 mg/kg IV",1185.6±138.7 mm^3
same,average tumor volume,"HBL-2 tumor cells [9]; Day 24 (3rd dose), treatment from Day 17",2623.7±351.5 mm^3
same,terminal half-life,[10],92.1 h
same,CD4+,"[11]; Day 3, 50 ng/mL",3.08%
same,CD8+,"[11]; Day 3, 50 ng/mL",1.81%
same,CD20+/CD5+,"[11]; Day 3, 50 ng/mL, E:T = 1:23",73.5%
same,CD4+,"[11]; Day 3, 200 ng/mL",3.23%
same,CD8+,"[11]; Day 3, 200 ng/mL",1.62%
same,CD20+/CD5+,"[11]; Day 3, 200 ng/mL",72.9%
same,CD4+,"[11]; Day 6, 50 ng/mL",3.54%
same,CD8+,"[11]; Day 6, 50 ng/mL",2.26%
same,CD20+/CD5+,"[11]; Day 6, 50 ng/mL",74.9%
same,CD25+/CD4+,"[11]; Day 6, 50 ng/mL",1.4%
same,CD25+/CD8+,"[11]; Day 6, 50 ng/mL",20.6%
same,CD4+,"[11]; Day 6, 200 ng/mL",2.79%
same,CD8+,"[11]; Day 6, 200 ng/mL",1.82%
same,CD20+/CD5+,"[11]; Day 6, 200 ng/mL",73.4%
same,CD25+/CD4+,"[11]; Day 6, 200 ng/mL",1.4%
same,CD25+/CD8+,"[11]; Day 6, 200 ng/mL",14.3%
same,B cell killing or upregulation of CD25,[11]; through Day 6,no B cell killing or upregulation of CD25 was observed
same,efficacy in dose-range finding study,Raji.luc lymphoma cells; 0.16 μg/kg to 0.5 mg/kg,rapid progression of Raji.luc tumor growth
same,Study Day by which all mice died or were humanely sacrificed,Raji.luc lymphoma cells; 0.5 mg/kg IV,≤ 53 Study Day
same,"tumor burden / tumor progression, dose-range finding",Raji.luc cells,slight delay of tumor progression
